The assay has as its system HEK293T cells carrying the ATF4 luciferase reporter. In words: ATF4-Luc assay, in vitro model of Vanishing Cell White Matter Disease (VWMD). The note with it: Homo sapiens, HEK-293T, 1 μg/mL tunicamycin, 7 hours, One Glo luminescence. In kind it is cell-based. The method in brief: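 Compound at 200 nM and tunicamycin at 1 μg/mL were given together for 7 h to HEK293T cells stably transduced with an ATF4 5′-UTR-driven firefly luciferase reporter. Read-out by luminescence, reported as EC50.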
As for `CC(C)Oc1ccc(C(=O)NC23CC(NC(=O)COc4ccc(Cl)cc4)(C2)C3)nc1` [Compound 185, N-{3-[2-(4-chlorophenoxy)acetamido]bicyclo[1.1.1]pentan-1-yl}-5-[(propan-2-yl)oxy]pyridine-2-carboxamide], the EC50 (in general, the concentration needed to bring the measured effect to its halfway point) was 250 to 1000 nM.
As to `O=C(COc1ccc(Cl)c(F)c1)NC12CC(NC(=O)c3ccncc3)(C1)C2` [Compound 186, N-{3-[2-(4-chloro-3-fluorophenoxy)acetamido]bicyclo[1.1.1]pentan-1-yl}pyridine-4-carboxamide], the EC50 lay within 250 to 1000 nM.
On to `O=C(COc1ccc(Cl)c(F)c1)NC12CC(NC(=O)c3ccncn3)(C1)C2` [Compound 187, N-{3-[2-(4-chloro-3-fluorophenoxy)acetamido]bicyclo[1.1.1]pentan-1-yl}pyrimidine-4-carboxamide], for which the EC50 was in the range of 1000 to 2000 nM.
Next, `O=C(COc1ccc(Cl)c(F)c1)NC12CC(NC(=O)c3cncnc3)(C1)C2` [Compound 188, N-{3-[2-(4-chloro-3-fluorophenoxy)acetamido]bicyclo[1.1.1]pentan-1-yl}pyrimidine-5-carboxamide]: 250 to 1000 nM; `O=C(COc1ccc(Cl)c(F)c1)NC12CC(NC(=O)c3cc(N4CC(F)(F)C4)ccn3)(C1)C2` [Compound 189, N-{3-[2-(4-chloro-3-fluorophenoxy)acetamido]bicyclo[1.1.1]pentan-1-yl}-4-(3,3-difluoroazetidin-1-yl)pyridine-2-carboxamide]: 250 to 1000 nM.
For the molecule `COC1CN(c2ccnc(C(=O)NC34CC(NC(=O)COc5ccc(Cl)c(F)c5)(C3)C4)c2)C1` [Compound 190, N-{3-[2-(4-chloro-3-fluorophenoxy)acetamido]bicyclo[1.1.1]pentan-1-yl}-4-(3-methoxyazetidin-1-yl)pyridine-2-carboxamide], the EC50 was in the range of 250 to 1000 nM.
Next, `O=C(COc1ccc(Cl)c(F)c1)NC12CC(NC(=O)c3ccc(C(F)F)cc3)(C1)C2` [Compound 191, N-{3-[2-(4-chloro-3-fluorophenoxy)acetamido]bicyclo[1.1.1]pentan-1-yl}-4-(difluoromethyl)benzamide]: 50 to 250 nM; `CC(C)(C)OC(=O)NCc1ccnc(C(=O)NC23CC(NC(=O)COc4ccc(Cl)c(F)c4)(C2)C3)c1` [Compound 192, tert-butyl {[2-({3-[2-(4-chloro-3-fluorophenoxy)acetamido]bicyclo[1.1.1]pentan-1-yl}carbamoyl)pyridin-4-yl]methyl}carbamate]: 250 to 1000 nM.
As to `NCc1ccnc(C(=O)NC23CC(NC(=O)COc4ccc(Cl)c(F)c4)(C2)C3)c1` [Compound 193, 4-(aminomethyl)-N-{3-[2-(4-chloro-3-fluorophenoxy)acetamido]bicyclo[1.1.1]pentan-1-yl}pyridine-2-carboxamide], the 50% effective concentration (EC50) lay within 50 to 250 nM.
Next, `CC(=O)NCc1ccnc(C(=O)NC23CC(NC(=O)COc4ccc(Cl)c(F)c4)(C2)C3)c1` [Compound 194, 4-(acetamidomethyl)-N-{3-[2-(4-chloro-3-fluorophenoxy)acetamido]bicyclo[1.1.1]pentan-1-yl}pyridine-2-carboxamide]: 50 to 250 nM; `O=C(COc1ccc(Cl)c(F)c1)NC12CCC(NC(=O)c3cnc(C(F)F)cn3)(CC1)C(O)C2` (stereo not drawn) [Compound 195, N-{4-[2-(4-chloro-3-fluorophenoxy)acetamido]-2-hydroxybicyclo[2.2.2]octan-1-yl}-5-(difluoromethyl)pyrazine-2-carboxamide]: below 50 nM.
For the molecule `Cc1ncc(C(=O)NC23CC(NC(=O)COc4ccc(Cl)c(F)c4)(C2)C3)nc1C` [Compound 196, N-{3-[2-(4-chloro-3-fluorophenoxy)acetamido]bicyclo[1.1.1]pentan-1-yl}-5,6-dimethylpyrazine-2-carboxamide], the EC50 is 250 to 1000 nM.
Consider `CCc1ccnc(C(=O)NC23CC(NC(=O)COc4ccc(Cl)c(F)c4)(C2)C3)c1` [Compound 197, N-{3-[2-(4-chloro-3-fluorophenoxy)acetamido]bicyclo[1.1.1]pentan-1-yl}-4-ethylpyridine-2-carboxamide], for which the EC50 fell in the range of 50 to 250 nM.
Take `O=C(COc1ccc(Cl)c(F)c1)NC12CC(NC(=O)c3ccccc3)(C1)C2` [Compound 198, N-{3-[2-(4-chloro-3-fluorophenoxy)acetamido]bicyclo[1.1.1]pentan-1-yl}benzamide]: the EC50 was in the range of 50 to 250 nM.
For `O=C(COc1ccc(Cl)c(F)c1)NC12CC(NC(=O)c3ccc(Cl)cc3)(C1)C2` [Compound 199, 4-chloro-N-{3-[2-(4-chloro-3-fluorophenoxy)acetamido]bicyclo[1.1.1]pentan-1-yl}benzamide], the EC50 lay in the range of 50 to 250 nM.
As for `O=C(COc1ccc(Cl)c(F)c1)NC12CC(NC(=O)c3cc(/C=C/CO)ccn3)(C1)C2` [Compound 200, N-{3-[2-(4-chloro-3-fluorophenoxy)acetamido]bicyclo[1.1.1]pentan-1-yl}-4-[(1E)-3-hydroxyprop-1-en-1-yl]pyridine-2-carboxamide], the EC50 was in the range of 50 to 250 nM.
On to `O=C(COc1ccc(Cl)c(Cl)c1)NC12CC(NC(=O)c3cnc(C(F)F)cn3)(C1)C2` [Compound 201, N-{3-[2-(3,4-dichlorophenoxy)acetamido]bicyclo[1.1.1]pentan-1-yl}-5-(difluoromethyl)pyrazine-2-carboxamide], for which the half-maximal effective concentration (EC50) was below 50 nM.
With `O=C(COc1ccc(Cl)cc1)NC12CC(NC(=O)c3cnc(C(F)F)cn3)(C1)C2` [Compound 202, N-{3-[2-(4-chlorophenoxy)acetamido]bicyclo[1.1.1]pentan-1-yl}-5-(difluoromethyl)pyrazine-2-carboxamide], the concentration giving a half-maximal response (EC50) fell in the range of 50 to 250 nM.
In the case of `O=C(COc1ccc(Cl)c(F)c1)NC12CC(NC(=O)c3ccc(C(F)(F)F)nc3)(C1)C2` [Compound 203, N-{3-[2-(4-chloro-3-fluorophenoxy)acetamido]bicyclo[1.1.1]pentan-1-yl}-6-(trifluoromethyl)pyridine-3-carboxamide], the EC50 fell in the range of 1000 to 2000 nM.
`CCOC(=O)c1ccnc(C(=O)NC23CC(NC(=O)COc4ccc(Cl)c(F)c4)(C2)C3)c1` [Compound 204, ethyl 2-({3-[2-(4-chloro-3-fluorophenoxy)acetamido]bicyclo[1.1.1]pentan-1-yl}carbamoyl)pyridine-4-carboxylate]: the EC50 fell in the range of 50 to 250 nM.
For the molecule `O=C(COc1ccc(Cl)c(F)c1)NC12CC(NC(=O)c3ccc4[nH]c(=O)[nH]c4n3)(C1)C2` [Compound 205, N-{3-[2-(4-chloro-3-fluorophenoxy)acetamido]bicyclo[1.1.1]pentan-1-yl}-2-oxo-2,3-dihydro-1H-imidazo[4,5-b]pyridine-5-carboxamide], the EC50 is above 2000 nM.
For the molecule `N#CCc1ccccc1C(=O)NC12CC(NC(=O)COc3ccc(Cl)c(F)c3)(C1)C2` [Compound 206, N-{3-[2-(4-chloro-3-fluorophenoxy)acetamido]bicyclo[1.1.1]pentan-1-yl}-2-(cyanomethyl)benzamide], the EC50 is 250 to 1000 nM.
As for `O=C(COc1ccc(Cl)c(F)c1)NC12CC(NC(=O)c3ccc(C(F)F)nc3)(C1)C2` [Compound 207, N-{3-[2-(4-chloro-3-fluorophenoxy)acetamido]bicyclo[1.1.1]pentan-1-yl}-6-(difluoromethyl)pyridine-3-carboxamide], the concentration for a half-maximal effect (EC50) lay within 50 to 250 nM.
Turning to `CC(C)(O)c1ccc(C(=O)NC23CC(NC(=O)COc4ccc(Cl)c(F)c4)(C2)C3)cc1` [Compound 208, N-{3-[2-(4-chloro-3-fluorophenoxy)acetamido]bicyclo[1.1.1]pentan-1-yl}-4-(2-hydroxypropan-2-yl)benzamide], the EC50 lay within 1000 to 2000 nM.
